Reference: ChEMBL document CHEMBL5346885, “"Hit" to lead optimization and chemoinformatic studies for a new series of Autotaxin inhibitors” (Eur J Med Chem, 2023)
Values after ≈ are worked out from the molar mass of the structure shown. Active and inactive are the calls of the source. No cut-off for these calls is given here.

Tests used:
[1] = target: T1, Autotaxin (Homo sapiens, UniProt Q13822); test: Inhibition of human ATX using LPC as substrate preincubated with compound for 15 mins followed by substrate addition measured after 30 mins by Amplex Red reagent based fluorescence analysis
[2] = target: Autotaxin (Mus musculus, UniProt Q9R1E6); test: Inhibition of mouse ATX using LPC as substrate preincubated with compound for 15 mins followed by substrate addition measured after 30 mins by Amplex Red reagent based fluorescence analysis
[3] = Kinetic solubility of compound in simulated gastric fluid at pH 1.7 by HPLC analysis
[4] = Cytotoxicity against wild type Fibroblast (unknown origin) assessed as redcution in cell growth measured after 48 hrs by crystal violet staining based analysis; conditions: wild type fibroblasts
[5] = target: 3',5'-cyclic phosphodiesterase; test: Inhibition of PDE (unknown origin); type: protein assay, Homo sapiens
[6] = Kinetic solubility of compound in simulated intestinal fluid at pH 6.6 by HPLC analysis
[7] = system: A549; test: Antiproliferative activity against human A549 cells assessed as redcution in cell growth measured after 24 hrs by MTT assay; type: functional, cell-based; conditions: dose 0.5-50 µM
[8] = system: A549; test: Inhibition of cell migration in human A549 cells at 5 uM incubated for 24 hrs by crystal violet staining based transwell assay; type: functional
[9] = target: T1, Autotaxin; test: Mixed type inhibition of human ATX assessed as inhibition constant using LPC as substrate by Lineweaver-Burk plot analysis
[10] = system: A549; test: Antitumor activity against human A549 cells assessed as redcution in cell viability measured after 24 hrs by MTT assay; type: functional, cell-based; conditions: dose 0.5-50 µM
[11] = system: CO[C@](C(=O)Nc1c2c(nn1-c1ccc(Br)cc1)CSC2)(c1ccccc1)C(F)(F)F; test: (§1) Mixed type inhibition of human ATX assessed as km using LPC as substrate by Lineweaver-Burk plot analysis
[12] = system: O=C(Nc1c2c(nn1-c1ccc(Br)cc1)CSC2)c1cc(Cl)cc(Cl)c1; test: as §1
[13] = Kinetic solubility of compound in PBS at pH 7.4 by HPLC analysis

| IC50 [1] | IC50 [2] | Compound | other results |
| --- | --- | --- | --- |
| 7.6 µM | – | O=C(Cc1ccc(F)cc1)Nc1c2c(nn1-c1ccc(Br)cc1)CSC2 | – |
| 16 µM | 38.4 µM | O=C(Nc1c2c(nn1-c1ccc([N+](=O)[O-])cc1)CSC2)c1cccc2ccccc12 | solubility kinetic [3]: 2.73 µM (≈ 1.14 µg/mL); CC50 at 48 h [4]: > 100 µM; IC50 [5]: 73 µM |
| > 100 µM | > 100 µM | COc1ccc(-n2nc3c(c2NC(=O)c2cccc4ccccc24)CSC3)cc1 | – |
| 70 µM | – | O=C(c1cc(Cl)cc(Cl)c1)N1CCN(c2c3c(nn2-c2ccc(Br)cc2)CSC3)CC1 | – |
| 6.7 µM | 1.8 µM | O=C(Nc1c2c(nn1-c1ccc(Br)cc1)CSC2)c1cc(Cl)cc(Cl)c1 | solubility kinetic [3]: 5.02 µM (≈ 2.36 µg/mL); solubility kinetic [6]: 4.18 µM (≈ 1.96 µg/mL); CC50 at 48 h [4]: > 100 µM; Activity [7]: Dose-Dependent Effect; inhibition [8]: Active; Ki [9]: 6.26 µM; Activity [10]: Dose-Dependent Effect |
| 11.2 µM | – | O=C(Nc1c2c(nn1-c1ccc(Br)cc1)CSC2)c1cc(F)cc(C(F)(F)F)c1 | – |
| > 50 µM | – | O=C(Cc1ccc(F)cc1)Nc1c2c(nn1-c1ccncc1)CSC2 | – |
| – | 22.1 µM | O=C(Nc1c2c(nn1-c1ccc(OC(F)(F)F)cc1)CSC2)c1cccc2ccccc12 | – |
| – | 40.8 µM | O=C(Nc1c2c(nn1-c1ccc(F)c(Cl)c1)CSC2)c1cccc2ccccc12 | – |
| – | 40 µM | O=C(Nc1c2c(nn1-c1ccc(Cl)c(Cl)c1)CSC2)c1cccc2ccccc12 | – |
| – | 48.3 µM | O=C(O)c1ccc(-n2nc3c(c2NC(=O)c2cccc4ccccc24)CSC3)cc1 | – |
| 4.6 µM | 5.3 µM | O=C(Nc1c2c(nn1-c1ccc(Br)cc1)CSC2)c1cccc2ccccc12 | – |
| – | 79.8 µM | NS(=O)(=O)c1ccc(-n2nc3c(c2NC(=O)c2cccc4ccccc24)CSC3)cc1 | – |
| – | – | Autotaxin (Homo sapiens) (from UniProt Q13822) | Km [11]: 5.61 µM; Km [12]: 17.1 µM |
| 12.1 µM | – | O=C(Nc1c2c(nn1-c1ccc(Br)cc1)CSC2)c1ccc2ccccc2c1 | – |
| – | – | CCc1nc2c(C)cc(N3CCN(CC(=O)N4CC(O)C4)CC3)cn2c1N(C)c1nc(-c2ccc(F)cc2)c(C#N)s1 [ZIRITAXESTAT] | solubility kinetic [3]: 200 µM (≈ 118 µg/mL); solubility kinetic [6]: 97 µM (≈ 57.1 µg/mL); solubility kinetic [13]: 96.9 µM (≈ 57 µg/mL) |
| 0.9 µM | 1.8 µM | O=C(Nc1c2c(nn1-c1cnccn1)CSC2)c1cccc2ccccc12 | IC50 [5]: 0.33 µM |
| 21.2 µM | – | O=C(Cc1ccc2ccccc2c1)Nc1c2c(nn1-c1ccc(Br)cc1)CSC2 | – |

| IC50 [1] | IC50 [2] | Compound | other results |
| --- | --- | --- | --- |
| 6.6 µM | – | O=C(Nc1c2c(nn1-c1ccc(Br)cc1)CCC2)c1cc(Cl)cc(Cl)c1 | – |
| – | 63 µM | O=C(Nc1c2c(nn1-c1ccc(F)c(F)c1)CSC2)c1cccc2ccccc12 | – |
| – | 46.6 µM | O=C(Nc1c2c(nn1-c1ccc(C(F)(F)F)cc1)CSC2)c1cccc2ccccc12 | – |
| > 100 µM | – | O=C(Nc1c2c(nn1-c1ccc(Br)cc1)CS(=O)(=O)C2)c1cccc2ccccc12 | – |
| 25 µM | – | O=C(CN1CCN(C(=O)c2cc(Cl)cc(Cl)c2)CC1)Nc1ccn(-c2ccc(Br)cc2)n1 | – |
| > 100 µM | > 100 µM | O=C(Nc1c2c(nn1-c1ccccc1)CSC2)c1cccc2ccccc12 | – |
| – | – | O=C(CCN1CCN(C(=O)OCc2cc(Cl)cc(Cl)c2)CC1)c1ccc2[nH]c(=O)oc2c1 | solubility kinetic [3]: 15.4 µM (≈ 7.35 µg/mL); solubility kinetic [13]: 1.22 µM (≈ 0.584 µg/mL) |
| 2 µM | – | CO[C@](C(=O)Nc1c2c(nn1-c1ccc(Br)cc1)CSC2)(c1ccccc1)C(F)(F)F | solubility kinetic [3]: 16.7 µM (≈ 8.58 µg/mL); solubility kinetic [6]: 2.55 µM (≈ 1.31 µg/mL); solubility kinetic [13]: 1.26 µM (≈ 0.646 µg/mL); CC50 at 48 h [4]: > 100 µM; Activity [7]: Dose-Dependent Effect; inhibition [8]: Active; Ki [9]: 6.83 µM; Activity [10]: Dose-Dependent Effect |
| > 100 µM | – | O=C(Nc1c2c(nn1-c1ccc(Br)cc1)COC2)c1cc(Cl)cc(Cl)c1 | – |
| – | – | O=C1S/C(=C\c2ccc(OCc3ccc(B(O)O)cc3)cc2)C(=O)N1Cc1ccc(F)cc1 | solubility kinetic [3]: 3.08 µM (≈ 1.43 µg/mL); solubility kinetic [6]: 1.05 µM (≈ 0.486 µg/mL) |
| 37.3 µM | – | O=C(Nc1c2c(nn1-c1ccc(Br)cc1)CSC2)c1ccc(C(F)(F)F)cc1 | – |
| – | 80 µM | Cc1ccc(-n2nc3c(c2NC(=O)c2cccc4ccccc24)CSC3)cc1Cl | – |
| – | 53.7 µM | O=C(Nc1c2c(nn1-c1cc(F)cc(F)c1)CSC2)c1cccc2ccccc12 | – |
| 41.8 µM | – | Cc1cc(C(=O)Nc2c3c(nn2-c2ccc(Br)cc2)CSC3)ccc1F | – |
| – | > 100 µM | COC(=O)c1ccc(-n2nc3c(c2NC(=O)c2cccc4ccccc24)CSC3)cc1 | – |
| 5.3 µM | 2.7 µM | O=C(Nc1c2c(nn1-c1ccncc1)CSC2)c1cccc2ccccc12 | – |
| 24.4 µM | – | CO[C@](C(=O)Nc1c2c(nn1-c1ccc(Br)cc1)CCC2)(c1ccccc1)C(F)(F)F | – |
| – | > 100 µM | CC(C)(C)n1nc2c(c1NC(=O)c1cccc3ccccc13)CSC2 | – |
